{"source": "ChEMBL document CHEMBL4613324", "about": "“Design, Synthesis, and Evaluation of a Series of Novel Super Long-Acting DPP-4 Inhibitors for the Treatment of Type 2 Diabetes” (J Med Chem, 2020)", "key": {"[1]": {"target": "Voltage-gated inwardly rectifying potassium channel KCNH2 (Homo sapiens, UniProt Q12809)", "sequence (Q12809 whole entry)": "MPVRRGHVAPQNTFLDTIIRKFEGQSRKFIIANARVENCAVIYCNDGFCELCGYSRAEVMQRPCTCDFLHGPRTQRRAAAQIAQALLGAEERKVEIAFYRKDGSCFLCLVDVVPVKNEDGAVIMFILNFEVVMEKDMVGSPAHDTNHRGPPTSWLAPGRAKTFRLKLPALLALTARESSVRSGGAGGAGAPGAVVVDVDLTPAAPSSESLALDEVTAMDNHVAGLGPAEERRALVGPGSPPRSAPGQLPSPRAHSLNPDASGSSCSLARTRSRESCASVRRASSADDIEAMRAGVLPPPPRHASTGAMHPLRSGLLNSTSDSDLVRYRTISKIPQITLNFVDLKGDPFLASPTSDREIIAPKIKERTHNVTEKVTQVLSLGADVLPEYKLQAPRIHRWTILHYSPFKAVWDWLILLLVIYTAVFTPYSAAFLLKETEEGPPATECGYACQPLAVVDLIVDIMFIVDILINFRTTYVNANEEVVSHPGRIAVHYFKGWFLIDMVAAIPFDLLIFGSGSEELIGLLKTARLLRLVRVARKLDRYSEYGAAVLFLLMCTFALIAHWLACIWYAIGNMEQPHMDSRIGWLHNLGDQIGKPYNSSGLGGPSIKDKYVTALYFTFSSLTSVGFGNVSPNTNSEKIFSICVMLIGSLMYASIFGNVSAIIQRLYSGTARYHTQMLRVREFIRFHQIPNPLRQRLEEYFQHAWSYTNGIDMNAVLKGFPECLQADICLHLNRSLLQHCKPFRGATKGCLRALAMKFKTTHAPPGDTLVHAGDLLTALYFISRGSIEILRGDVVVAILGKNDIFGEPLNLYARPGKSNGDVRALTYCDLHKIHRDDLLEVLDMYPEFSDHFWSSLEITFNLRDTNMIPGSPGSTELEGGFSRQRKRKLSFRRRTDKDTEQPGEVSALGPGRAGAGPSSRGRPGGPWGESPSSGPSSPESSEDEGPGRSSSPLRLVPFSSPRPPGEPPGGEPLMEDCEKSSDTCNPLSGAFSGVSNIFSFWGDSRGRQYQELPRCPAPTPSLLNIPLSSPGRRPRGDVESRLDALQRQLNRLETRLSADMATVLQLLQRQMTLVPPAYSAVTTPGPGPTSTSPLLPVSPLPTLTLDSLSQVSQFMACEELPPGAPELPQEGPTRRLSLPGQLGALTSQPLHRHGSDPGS", "assay": "Inhibition of human ERG by manual whole-cell patch-clamp assay"}, "Cytochrome P450 2C9 [2]": {"target": "T1, Cytochrome P450 2C9 (Homo sapiens, UniProt P11712)", "T1 sequence (P11712 whole entry)": "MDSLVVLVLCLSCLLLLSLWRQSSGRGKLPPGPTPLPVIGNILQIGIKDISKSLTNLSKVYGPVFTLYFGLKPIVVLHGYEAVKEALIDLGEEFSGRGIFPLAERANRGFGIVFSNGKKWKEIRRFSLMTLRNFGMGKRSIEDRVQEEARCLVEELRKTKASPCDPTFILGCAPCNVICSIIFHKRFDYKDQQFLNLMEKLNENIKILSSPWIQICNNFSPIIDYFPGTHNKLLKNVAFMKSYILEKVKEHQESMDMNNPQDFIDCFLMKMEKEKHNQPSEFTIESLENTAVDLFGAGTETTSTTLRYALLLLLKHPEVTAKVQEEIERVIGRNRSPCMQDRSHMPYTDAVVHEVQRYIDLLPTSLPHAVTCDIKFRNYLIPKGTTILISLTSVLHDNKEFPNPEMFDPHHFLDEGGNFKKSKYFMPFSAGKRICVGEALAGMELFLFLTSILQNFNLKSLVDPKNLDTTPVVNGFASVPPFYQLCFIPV", "assay": "(§1) Inhibition of recombinant human CYP2C9", "format": "ADME"}, "Cytochrome P450 2C9 [3]": {"target": "T1, Cytochrome P450 2C9", "assay": "as §1", "format": "ADME", "remark": "listed apart in the source"}, "Cytochrome P450 2B6 [4]": {"target": "T2, Cytochrome P450 2B6 (Homo sapiens, UniProt P20813)", "T2 sequence (P20813 whole entry)": "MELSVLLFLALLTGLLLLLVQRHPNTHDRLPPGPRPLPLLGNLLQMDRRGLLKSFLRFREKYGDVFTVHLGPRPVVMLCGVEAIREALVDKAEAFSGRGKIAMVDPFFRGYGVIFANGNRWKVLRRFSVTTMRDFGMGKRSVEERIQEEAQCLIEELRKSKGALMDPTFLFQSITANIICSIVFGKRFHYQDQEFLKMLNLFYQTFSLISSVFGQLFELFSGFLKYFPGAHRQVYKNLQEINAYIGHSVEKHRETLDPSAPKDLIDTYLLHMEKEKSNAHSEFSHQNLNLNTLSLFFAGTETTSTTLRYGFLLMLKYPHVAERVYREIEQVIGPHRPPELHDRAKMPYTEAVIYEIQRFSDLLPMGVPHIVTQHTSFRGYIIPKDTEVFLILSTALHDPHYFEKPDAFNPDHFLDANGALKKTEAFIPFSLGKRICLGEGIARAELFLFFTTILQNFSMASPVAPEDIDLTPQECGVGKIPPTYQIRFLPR", "assay": "(§2) Inhibition of recombinant human CYP2B6", "format": "ADME"}, "[5]": {"assay": "Toxicity in male Sprague-Dawley rat during 3-month repeated dose toxicology study", "settings": "in vivo"}, "Mus musculus [6]": {"test_system": "Mus musculus", "assay": "Antidiabetic activity in ob/ob mouse assessed as reduction in decrease in HbA1c level at 3 mg/kg, po dosed once every three days for 31 day relative to control", "format": "functional", "design": "scale not given: the % may be the effect or the level left"}, "Cytochrome P450 2A6": {"target": "T3, Cytochrome P450 2A6 (Homo sapiens, UniProt P11509)", "T3 sequence (P11509 whole entry)": "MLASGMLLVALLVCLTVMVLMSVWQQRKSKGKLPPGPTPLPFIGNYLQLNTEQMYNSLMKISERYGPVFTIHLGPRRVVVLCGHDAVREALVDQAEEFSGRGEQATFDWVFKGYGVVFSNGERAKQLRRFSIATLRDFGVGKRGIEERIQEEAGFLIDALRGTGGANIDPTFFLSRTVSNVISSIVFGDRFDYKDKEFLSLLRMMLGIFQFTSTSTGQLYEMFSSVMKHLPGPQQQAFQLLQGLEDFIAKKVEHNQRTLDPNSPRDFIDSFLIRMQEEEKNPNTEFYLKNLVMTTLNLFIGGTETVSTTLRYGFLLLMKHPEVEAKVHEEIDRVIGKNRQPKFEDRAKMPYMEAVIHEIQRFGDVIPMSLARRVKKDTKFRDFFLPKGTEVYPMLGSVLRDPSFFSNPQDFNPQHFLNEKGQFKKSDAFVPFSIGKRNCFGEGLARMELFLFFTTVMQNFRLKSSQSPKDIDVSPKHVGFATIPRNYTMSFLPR", "assay": "Inhibition of recombinant human CYP2A6", "format": "ADME"}, "CYP2C9": {"target": "CYP2C9 (Homo sapiens, UniProt P11712)", "sequence (P11712 whole entry)": "as the sequence (P11712 whole entry) above", "assay": "Stability assessed as recombinant human CYP2C9 mediated compound metabolism by measuring parent compound remaining after 30 mins relative to control", "format": "ADME", "settings": "read-out: Stability"}, "[7]": {"assay": "Volume of distribution at steady state in ICR mouse at 0.5 mg/kg, iv measured after 0.0833 to 120 hrs by LC-MS-MS analysis", "format": "ADME, organism-based", "settings": "in vivo, read-out: Vdss"}, "[8]": {"assay": "Oral bioavailability in ICR mouse at 2 mg/kg measured after 0.0833 to 120 hrs by LC-MS-MS analysis", "format": "ADME, organism-based", "settings": "in vivo"}, "Cytochrome P450 2C9 [9]": {"target": "T1, Cytochrome P450 2C9", "assay": "as §1", "format": "ADME", "remark": "listed apart in the source"}, "Cytochrome P450 3A5 [10]": {"target": "T4, Cytochrome P450 3A5 (Homo sapiens, UniProt P20815)", "T4 sequence (P20815 whole entry)": "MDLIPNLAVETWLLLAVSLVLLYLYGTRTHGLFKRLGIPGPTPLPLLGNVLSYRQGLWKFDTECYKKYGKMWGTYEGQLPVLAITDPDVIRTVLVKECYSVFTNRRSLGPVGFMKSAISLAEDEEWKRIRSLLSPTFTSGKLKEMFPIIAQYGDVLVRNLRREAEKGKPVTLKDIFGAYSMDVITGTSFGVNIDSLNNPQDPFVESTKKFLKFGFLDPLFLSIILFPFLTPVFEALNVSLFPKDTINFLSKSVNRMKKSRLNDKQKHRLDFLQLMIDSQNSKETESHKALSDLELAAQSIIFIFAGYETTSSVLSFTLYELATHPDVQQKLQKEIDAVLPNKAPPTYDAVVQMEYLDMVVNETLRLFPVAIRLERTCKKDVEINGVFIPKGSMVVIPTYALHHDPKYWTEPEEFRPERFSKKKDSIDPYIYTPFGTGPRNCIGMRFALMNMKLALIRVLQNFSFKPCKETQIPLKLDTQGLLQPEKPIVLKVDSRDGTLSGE", "assay": "(§3) Inhibition of recombinant human CYP3A5 using midazolam as substrate", "format": "ADME"}, "Cytochrome P450 2C19": {"target": "Cytochrome P450 2C19 (Homo sapiens, UniProt P33261)", "sequence (P33261 whole entry)": "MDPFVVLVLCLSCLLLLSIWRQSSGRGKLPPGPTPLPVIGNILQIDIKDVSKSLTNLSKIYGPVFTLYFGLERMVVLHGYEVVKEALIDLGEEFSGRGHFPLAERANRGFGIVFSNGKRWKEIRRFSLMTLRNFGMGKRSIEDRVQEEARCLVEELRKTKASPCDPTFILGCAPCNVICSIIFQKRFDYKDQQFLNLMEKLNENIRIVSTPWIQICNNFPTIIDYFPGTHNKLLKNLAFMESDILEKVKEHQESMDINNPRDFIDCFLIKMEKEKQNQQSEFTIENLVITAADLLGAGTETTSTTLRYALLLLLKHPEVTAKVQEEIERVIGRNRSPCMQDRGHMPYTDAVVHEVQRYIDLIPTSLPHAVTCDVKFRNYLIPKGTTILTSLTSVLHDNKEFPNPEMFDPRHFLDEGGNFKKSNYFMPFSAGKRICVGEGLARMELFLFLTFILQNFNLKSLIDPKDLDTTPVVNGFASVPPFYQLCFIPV", "assay": "Inhibition of recombinant human CYP2C19", "format": "ADME"}, "[11]": {"assay": "Intrinsic clearance in mouse liver microsomes at 0.5 uM incubated for 0.5 to 60 mins by LC-MS/MS analysis", "format": "ADME, Microsome", "settings": "read-out: CLH"}, "Cytochrome P450 3A5 [12]": {"target": "T4, Cytochrome P450 3A5", "assay": "as §3", "format": "ADME", "remark": "listed apart in the source"}, "Cytochrome P450 1A2 [13]": {"target": "T5, Cytochrome P450 1A2 (Homo sapiens, UniProt P05177)", "T5 sequence (P05177 whole entry)": "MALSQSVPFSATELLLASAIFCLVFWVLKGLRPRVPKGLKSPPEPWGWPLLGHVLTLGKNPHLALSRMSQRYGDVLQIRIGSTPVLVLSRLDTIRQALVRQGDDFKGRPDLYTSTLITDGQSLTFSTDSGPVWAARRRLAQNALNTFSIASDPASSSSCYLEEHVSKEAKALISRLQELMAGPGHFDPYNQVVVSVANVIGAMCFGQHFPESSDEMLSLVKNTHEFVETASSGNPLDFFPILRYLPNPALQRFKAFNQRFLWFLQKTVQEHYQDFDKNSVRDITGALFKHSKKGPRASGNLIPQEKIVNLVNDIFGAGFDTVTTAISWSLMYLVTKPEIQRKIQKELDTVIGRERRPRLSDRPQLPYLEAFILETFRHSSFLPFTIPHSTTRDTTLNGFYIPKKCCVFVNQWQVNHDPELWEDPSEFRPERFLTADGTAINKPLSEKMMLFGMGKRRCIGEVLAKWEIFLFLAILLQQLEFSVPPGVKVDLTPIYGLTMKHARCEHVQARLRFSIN", "assay": "(§4) Inhibition of recombinant human CYP1A2", "format": "ADME"}, "Cytochrome P450 1A2 [14]": {"target": "T5, Cytochrome P450 1A2", "assay": "as §4", "format": "ADME", "remark": "listed apart in the source"}, "CYP2E1": {"target": "CYP2E1 (Homo sapiens, UniProt P05181)", "sequence (P05181 whole entry)": "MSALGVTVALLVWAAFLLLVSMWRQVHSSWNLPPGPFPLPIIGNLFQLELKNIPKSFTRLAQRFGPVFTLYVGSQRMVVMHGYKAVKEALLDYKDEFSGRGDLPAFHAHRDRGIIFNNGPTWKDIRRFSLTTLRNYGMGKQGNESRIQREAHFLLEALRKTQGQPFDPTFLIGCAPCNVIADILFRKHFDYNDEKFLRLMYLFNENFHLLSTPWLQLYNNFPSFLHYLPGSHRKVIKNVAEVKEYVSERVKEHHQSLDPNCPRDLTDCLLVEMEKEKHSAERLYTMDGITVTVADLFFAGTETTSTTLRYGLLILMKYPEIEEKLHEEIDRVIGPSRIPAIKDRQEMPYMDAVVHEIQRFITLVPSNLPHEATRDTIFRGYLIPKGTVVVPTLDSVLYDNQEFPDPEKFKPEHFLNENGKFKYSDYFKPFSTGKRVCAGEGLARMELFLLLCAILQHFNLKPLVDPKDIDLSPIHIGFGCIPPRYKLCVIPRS", "assay": "Stability assessed as recombinant human CYP2E1 mediated compound metabolism by measuring parent compound remaining after 30 mins relative to control", "format": "ADME", "settings": "read-out: Stability"}, "CYP2C19": {"target": "CYP2C19 (Homo sapiens, UniProt P33261)", "sequence (P33261 whole entry)": "as the sequence (P33261 whole entry) above", "assay": "Stability assessed as recombinant human CYP2C19 mediated compound metabolism by measuring parent compound remaining after 30 mins relative to control", "format": "ADME", "settings": "read-out: Stability"}, "Cytochrome P450 2E1": {"target": "Cytochrome P450 2E1 (Homo sapiens, UniProt P05181)", "sequence (P05181 whole entry)": "as the sequence (P05181 whole entry) above", "assay": "Inhibition of recombinant human CYP2E1", "format": "ADME"}, "Cytochrome P450 1A2 [15]": {"target": "T5, Cytochrome P450 1A2", "assay": "as §4", "format": "ADME", "remark": "listed apart in the source"}, "[16]": {"assay": "Half life in ICR mouse at 2 mg/kg, po measured after 0.0833 to 120 hrs by LC-MS-MS analysis", "format": "ADME, organism-based", "settings": "in vivo"}, "[17]": {"assay": "Toxicity in Sprague-Dawley rat during single oral dose toxicology study", "settings": "in vivo"}, "Cytochrome P450 3A4 [18]": {"target": "T6, Cytochrome P450 3A4 (Homo sapiens, UniProt P08684)", "T6 sequence (P08684 whole entry)": "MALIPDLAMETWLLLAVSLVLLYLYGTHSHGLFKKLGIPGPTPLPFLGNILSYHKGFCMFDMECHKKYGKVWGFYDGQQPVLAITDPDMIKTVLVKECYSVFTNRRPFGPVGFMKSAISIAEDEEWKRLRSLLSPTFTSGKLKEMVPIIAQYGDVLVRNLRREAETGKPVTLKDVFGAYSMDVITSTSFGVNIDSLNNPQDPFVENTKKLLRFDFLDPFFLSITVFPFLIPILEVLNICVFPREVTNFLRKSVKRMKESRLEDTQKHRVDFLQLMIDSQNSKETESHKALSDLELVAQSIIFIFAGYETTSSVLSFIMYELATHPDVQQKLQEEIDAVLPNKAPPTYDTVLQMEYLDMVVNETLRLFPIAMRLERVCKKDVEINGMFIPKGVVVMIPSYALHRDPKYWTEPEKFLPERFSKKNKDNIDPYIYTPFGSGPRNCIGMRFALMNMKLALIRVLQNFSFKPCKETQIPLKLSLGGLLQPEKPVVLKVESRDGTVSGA", "assay": "(§5) Inhibition of recombinant human CYP3A4 using testosterone as substrate", "format": "ADME"}, "Cytochrome P450 3A4 [19]": {"target": "T6, Cytochrome P450 3A4", "assay": "as §5", "format": "ADME", "remark": "listed apart in the source"}, "Cytochrome P450 2B6 [20]": {"target": "T2, Cytochrome P450 2B6", "assay": "as §2", "format": "ADME", "remark": "listed apart in the source"}, "CYP3A5": {"target": "CYP3A5 (Homo sapiens, UniProt P20815)", "sequence (P20815 whole entry)": "as the sequence (P20815 whole entry) above", "assay": "Stability assessed as recombinant human CYP3A5 mediated compound metabolism by measuring parent compound remaining after 30 mins relative to control", "format": "ADME", "settings": "read-out: Stability"}, "Cytochrome P450 3A5 [21]": {"target": "T4, Cytochrome P450 3A5", "assay": "Inhibition of recombinant human CYP3A5 using testosterone as substrate", "format": "ADME"}, "Cytochrome P450 2B6 [22]": {"target": "T2, Cytochrome P450 2B6", "assay": "as §2", "format": "ADME", "remark": "listed apart in the source"}, "[23]": {"assay": "AUC (0 to t) in ICR mouse at 2 mg/kg, po measured after 0.0833 to 120 hrs by LC-MS-MS analysis", "format": "ADME, organism-based", "design": "time upper 120 hr, time lower 0.083 hr, dose 2 mg/kg, route oral", "settings": "in vivo"}, "Mus musculus [24]": {"test_system": "Mus musculus", "assay": "Antidiabetic activity in ob/ob mouse assessed as reduction in random blood glucose levels at 1 to 10 mg/kg, po dosed once every three days for 31 days", "format": "functional, organism-based"}}, "note": "Active and inactive are the calls of the source. The rule behind the calls is not given here."}
{"smiles": "CS(=O)(=O)n1cc2c(n1)CN([C@@H]1C[C@H](N)[C@@H](c3cc(F)ccc3F)O[C@@H]1C(F)(F)F)C2", "note": "[COFROGLIPTIN]", "values": [{"measurement": "IC50", "setting": "[1]", "value": "> 30", "unit": "µM"}, {"measurement": "IC50", "setting": "Cytochrome P450 2C9 [2]", "value": "> 100", "unit": "µM"}, {"measurement": "IC50", "setting": "Cytochrome P450 2C9 [3]", "value": "> 100", "unit": "µM"}, {"measurement": "IC50", "setting": "Cytochrome P450 2B6 [4]", "value": "> 100", "unit": "µM"}, {"measurement": "NOAEL at 3 month", "setting": "[5]", "value": 300, "unit": "mg/kg"}, {"measurement": "Activity", "setting": "Mus musculus [6]", "value": 19.1, "unit": "%"}, {"measurement": "IC50", "setting": "Cytochrome P450 2A6", "value": "> 100", "unit": "µM"}, {"measurement": "remaining at 0.5 h", "setting": "CYP2C9", "value": "> 95", "unit": "%"}, {"measurement": "Vd", "setting": "[7]", "value": 3.3, "unit": "L/kg"}, {"measurement": "bioavailability", "setting": "[8]", "value": 62.2, "unit": "%"}, {"measurement": "IC50", "setting": "Cytochrome P450 2C9 [9]", "value": "> 100", "unit": "µM"}, {"measurement": "IC50", "setting": "Cytochrome P450 3A5 [10]", "value": "> 100", "unit": "µM"}, {"measurement": "IC50", "setting": "Cytochrome P450 2C19", "value": "> 100", "unit": "µM"}, {"measurement": "microsomal CLint at 0.5 µM", "setting": "[11]", "value": 0.8, "unit": "µL/min/mg"}, {"measurement": "IC50", "setting": "Cytochrome P450 3A5 [12]", "value": 45.8, "unit": "µM"}, {"measurement": "IC50", "setting": "Cytochrome P450 1A2 [13]", "value": "> 100", "unit": "µM"}, {"measurement": "IC50", "setting": "Cytochrome P450 1A2 [14]", "value": "> 100", "unit": "µM"}, {"measurement": "remaining at 0.5 h", "setting": "CYP2E1", "value": "> 95", "unit": "%"}, {"measurement": "remaining at 0.5 h", "setting": "CYP2C19", "value": "> 95", "unit": "%"}, {"measurement": "IC50", "setting": "Cytochrome P450 2E1", "value": "> 100", "unit": "µM"}, {"measurement": "IC50", "setting": "Cytochrome P450 1A2 [15]", "value": "> 100", "unit": "µM"}, {"measurement": "half-life", "setting": "[16]", "value": 1790, "unit": "min"}, {"measurement": "MTD", "setting": "[17]", "value": 1000, "unit": "mg/kg"}, {"measurement": "IC50", "setting": "Cytochrome P450 3A4 [18]", "value": "> 100", "unit": "µM"}, {"measurement": "IC50", "setting": "Cytochrome P450 3A4 [19]", "value": "> 100", "unit": "µM"}, {"measurement": "IC50", "setting": "Cytochrome P450 2B6 [20]", "value": "> 100", "unit": "µM"}, {"measurement": "remaining at 0.5 h", "setting": "CYP3A5", "value": "> 95", "unit": "%"}, {"measurement": "IC50", "setting": "Cytochrome P450 3A5 [21]", "value": "> 100", "unit": "µM"}, {"measurement": "IC50", "setting": "Cytochrome P450 2B6 [22]", "value": "> 100", "unit": "µM"}, {"measurement": "AUC(0-t)", "setting": "[23]", "value": 7900, "unit": "ng·h/mL"}, {"measurement": "Activity", "setting": "Mus musculus [24]", "value": "Active"}]}
